Results on one compound are retold here after ChEMBL document CHEMBL4342480, “Design of Dual Inhibitors of Soluble Epoxide Hydrolase and LTA4 Hydrolase” (ACS Med Chem Lett, 2020).

The test system of experiment [1] is Macrophage. Kind of experiment: Antiinflammatory activity in Escherichia coli O6:K2:H1-induced human M1 macrophage assessed as change in 17-HDHA level at 1 uM preincubated for 10 mins followed by Escherichia coli O6:K2:H1-stimulation and measured after 180 mins by UPLC-MS/MS analysis relative to control. It counts as functional.
For experiment [2], the target named is T1, Leukotriene A-4 hydrolase (Homo sapiens, UniProt P09960).
T1 sequence (P09960 whole entry): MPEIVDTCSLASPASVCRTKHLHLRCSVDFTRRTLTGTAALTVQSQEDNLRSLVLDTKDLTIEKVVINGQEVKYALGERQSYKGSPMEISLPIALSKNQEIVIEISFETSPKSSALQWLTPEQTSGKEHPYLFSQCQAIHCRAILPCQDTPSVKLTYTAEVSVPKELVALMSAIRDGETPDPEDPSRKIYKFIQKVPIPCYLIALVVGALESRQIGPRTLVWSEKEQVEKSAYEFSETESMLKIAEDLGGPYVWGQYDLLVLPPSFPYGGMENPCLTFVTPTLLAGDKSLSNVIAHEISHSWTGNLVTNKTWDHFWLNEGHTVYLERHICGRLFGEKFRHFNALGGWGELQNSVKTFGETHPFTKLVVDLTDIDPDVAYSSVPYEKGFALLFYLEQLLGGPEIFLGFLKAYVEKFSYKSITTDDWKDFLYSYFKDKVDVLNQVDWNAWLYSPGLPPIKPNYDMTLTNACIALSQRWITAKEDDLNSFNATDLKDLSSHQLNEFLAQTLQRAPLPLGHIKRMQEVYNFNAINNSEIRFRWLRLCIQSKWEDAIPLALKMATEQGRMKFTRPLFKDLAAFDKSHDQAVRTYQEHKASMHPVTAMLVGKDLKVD
Kind of experiment: Inhibition of (His)6 tagged human recombinant LTA4H expressed in Escherichia coli BL21(DE3) using non-fluorescent L-arginine-7-amino-4-methylcoumarine as substrate preincubated for 30 mins followed by substrate addition and measured for 30 mins by fluorescence based assay.

For experiment [3], the system named is Macrophage. Kind of experiment: Antiinflammatory activity in Escherichia coli O6:K2:H1-induced human M2 macrophage assessed as change in PGE2 level at 1 uM preincubated for 10 mins followed by Escherichia coli O6:K2:H1-stimulation and measured after 180 mins by UPLC-MS/MS analysis relative to control. It counts as functional.
For experiment [4], the system named is Macrophage. As to the kind of experiment: Antiinflammatory activity in Escherichia coli O6:K2:H1-induced human M2 macrophage assessed as change in PGD2 level at 1 uM preincubated for 10 mins followed by Escherichia coli O6:K2:H1-stimulation and measured after 180 mins by UPLC-MS/MS analysis relative to control. Format: functional.
For experiment [5], the system named is Macrophage. Kind of experiment: Antiinflammatory activity in Escherichia coli O6:K2:H1-induced human M2 macrophage assessed as change in PGE2 level at 10 uM preincubated for 10 mins followed by Escherichia coli O6:K2:H1-stimulation and measured after 180 mins by UPLC-MS/MS analysis relative to control. Format: functional.
Experiment [6] concerns Macrophage. As to the kind of experiment: Antiinflammatory activity in Escherichia coli O6:K2:H1-induced human M1 macrophage assessed as change in PGF2alpha level at 1 uM preincubated for 10 mins followed by Escherichia coli O6:K2:H1-stimulation and measured after 180 mins by UPLC-MS/MS analysis relative to control. Format: functional.
For experiment [7], the system named is Macrophage. As to the kind of experiment: Antiinflammatory activity in Escherichia coli O6:K2:H1-induced human M2 macrophage assessed as change in […] level at 10 uM preincubated for 10 mins followed by Escherichia coli O6:K2:H1-stimulation and measured after 180 mins by UPLC-MS/MS analysis relative to control. Format: functional.
Experiment [8] deals with Macrophage. As to the kind of experiment: Antiinflammatory activity in Escherichia coli O6:K2:H1-induced human M1 macrophage assessed as change in […] level at 1 uM preincubated for 10 mins followed by Escherichia coli O6:K2:H1-stimulation and measured after 180 mins by UPLC-MS/MS analysis relative to control. Format: functional.
Experiment [9] concerns Macrophage. As to the kind of experiment: Antiinflammatory activity in Escherichia coli O6:K2:H1-induced human M2 macrophage assessed as change in PGD2 level at 10 uM preincubated for 10 mins followed by Escherichia coli O6:K2:H1-stimulation and measured after 180 mins by UPLC-MS/MS analysis relative to control. Format: functional.
In experiment [10] the test system is Macrophage. As to the kind of experiment: Antiinflammatory activity in Escherichia coli O6:K2:H1-induced human M2 macrophage assessed as change in 15-HETE level at 1 uM preincubated for 10 mins followed by Escherichia coli O6:K2:H1-stimulation and measured after 180 mins by UPLC-MS/MS analysis relative to control. Format: functional.
For experiment [11], the system named is Macrophage. Kind of experiment: Antiinflammatory activity in Escherichia coli O6:K2:H1-induced human M1 macrophage assessed as change in 4-HDHA level at 1 uM preincubated for 10 mins followed by Escherichia coli O6:K2:H1-stimulation and measured after 180 mins by UPLC-MS/MS analysis relative to control. Format: functional.
For experiment [12], the system named is Macrophage. As to the kind of experiment: Antiinflammatory activity in Escherichia coli O6:K2:H1-induced human M2 macrophage assessed as change in 15-HETE level at 10 uM preincubated for 10 mins followed by Escherichia coli O6:K2:H1-stimulation and measured after 180 mins by UPLC-MS/MS analysis relative to control. It counts as functional.
Experiment [13] deals with Macrophage. As to the kind of experiment: Antiinflammatory activity in Escherichia coli O6:K2:H1-induced human M2 macrophage assessed as change in 14-HDHA level at 1 uM preincubated for 10 mins followed by Escherichia coli O6:K2:H1-stimulation and measured after 180 mins by UPLC-MS/MS analysis relative to control. Format: functional.
Experiment [14] concerns Macrophage. Kind of experiment: Antiinflammatory activity in Escherichia coli O6:K2:H1-induced human M2 macrophage assessed as change in 5.15-dlHETE level at 10 uM preincubated for 10 mins followed by Escherichia coli O6:K2:H1-stimulation and measured after 180 mins by UPLC-MS/MS analysis relative to control. Format: functional.
The subject of experiment [15] is Macrophage. As to the kind of experiment: Antiinflammatory activity in Escherichia coli O6:K2:H1-induced human M2 macrophage assessed as change in 4-HDHA level at 1 uM preincubated for 10 mins followed by Escherichia coli O6:K2:H1-stimulation and measured after 180 mins by UPLC-MS/MS analysis relative to control. It counts as functional.
For experiment [16], the system named is Macrophage. Kind of experiment: Antiinflammatory activity in Escherichia coli O6:K2:H1-induced human M2 macrophage assessed as change in PGF2alpha level at 10 uM preincubated for 10 mins followed by Escherichia coli O6:K2:H1-stimulation and measured after 180 mins by UPLC-MS/MS analysis relative to control. Format: functional.
For experiment [17], the system named is Macrophage. As to the kind of experiment: Antiinflammatory activity in Escherichia coli O6:K2:H1-induced human M2 macrophage assessed as change in 18-HEPE level at 1 uM preincubated for 10 mins followed by Escherichia coli O6:K2:H1-stimulation and measured after 180 mins by UPLC-MS/MS analysis relative to control. It counts as functional.
For experiment [18], the system named is Macrophage. Kind of experiment: Antiinflammatory activity in Escherichia coli O6:K2:H1-induced human M2 macrophage assessed as change in 5-HEPE level at 10 uM preincubated for 10 mins followed by Escherichia coli O6:K2:H1-stimulation and measured after 180 mins by UPLC-MS/MS analysis relative to control. Format: functional.
The subject of experiment [19] is Macrophage. Kind of experiment: Antiinflammatory activity in Escherichia coli O6:K2:H1-induced human M1 macrophage assessed as change in 4-HDHA level at 10 uM preincubated for 10 mins followed by Escherichia coli O6:K2:H1-stimulation and measured after 180 mins by UPLC-MS/MS analysis relative to control. It counts as functional.

Take `O=C(Cc1ccc(Oc2nc3ccccc3s2)cc1F)NCCc1ccc(F)cc1`: the Activity in the experiment with Macrophage [1] is recorded as 97%; in the experiment with Macrophage [3], 61%; with Macrophage [4], 63%; in the experiment on Macrophage [5], 51%; with Macrophage [6], 94%; with Macrophage [7], 26%. The Activity in the experiment with Macrophage [8] turned out to be 134%; in the experiment with Macrophage [9], 64%; in the experiment with Macrophage [10] it was 82%; in the experiment with Macrophage [11] it was 88%; in the experiment on Macrophage [12] it was 123%; in the experiment with Macrophage [13], 103%. Besides, the Activity in the experiment on Macrophage [14] was 101%; in the experiment on Macrophage [15] it was 82%; with Macrophage [16], 45%; with Macrophage [17], 86%; in the experiment on Macrophage [18] it was 97%; in the experiment on Macrophage [19], 72%. For the same compound, the concentration for half-maximal inhibition (IC50) in [2] was determined as 200 nM.

As usually defined, the IC50 is the concentration that gives 50% inhibition.
